# Experimental data reported in patent publication US8993542B2, “Methods of treating viral infections” (priority 2008, dated 2015).
# What was measured:
# [1] = system: HIV; assay: microbe, parasite or virus in culture; format: cell-based
# [2] = system: HIV-1IIIB; assay: Two-drug combination antiviral assay in CEM cells (CPE), MacSynergy II; format: cell-based; conditions: in combination with CMX157, CEM-SS cells, 95% confidence
# [3] = system: HIV-1Ba-L
# Description: The anti-HIV-1 activity of CMX157 is evaluated in two-drug combination studies with twenty-four different FDA-approved anti-HIV inhibitors. Each two-drug combination is tested three times in CEM T-lymphocytic cells or MAGI-CCR5 cells acutely infected with the laboratory-adapted strain HIV-1IIIB or HIV-1Ba-L, respectively. Viral growth/inhibition is evaluated by measuring virus-induced cytopathic effects (CPE) in CEM cells or by β-galactosidase reporter gene induction in MAGI-CCR5 cells at the experimental endpoint. The cytotoxicity of each two-drug combination is also evaluated in parallel with the antiviral evaluations. The concentrations of CMX157 used in these evaluations are selected in order to test a broad range of concentrations and to provide as complete a dose response curve as possible under the limitations of eight total concentrations. […] The “positive antagonism control” of d4T (stavudine) in combination with RBV was tested in parallel with each of the assays that were performed. Analysis of drug interactions for each of the two-drug combinations is performed using the Prichard and Shipman MacSynergy II three-dimensional model for statistical evaluation of combination assays.
# [4] = in combination with CMX157, MAGI-CCR5 cells, 95% confidence
compound,measurement,setting,value
"OC[C@@H]1CC[C@H](n2cnc3c(O)ncnc32)O1 [ddI, 2′,3′-dideoxyinosine]",IC50,"[1]; Human immunodeficiency virus 1, PANEL 1, WT",5.54 µM
same,IC50,"[1]; Human immunodeficiency virus 1, PANEL 2, WT",5.57 µM
same,IC50,"[1]; Human immunodeficiency virus 1, PANEL 3, 6 TAMs, no 184",8.76 µM
same,IC50,"[1]; Human immunodeficiency virus 1, PANEL 6, 6 TAMs + 184",11.3 µM
same,IC50,"[1]; Human immunodeficiency virus 1, PANEL 7, 184V",7.57 µM
same,IC50,"[1]; Human immunodeficiency virus 1, PANEL 9, 69ins, no 184",22.2 µM
same,IC50,"[1]; Human immunodeficiency virus 1, PANEL 12, 69ins + 184",24.3 µM
same,IC50,"[1]; Human immunodeficiency virus 1, PANEL 14, 65R, no 184",9.17 µM
same,IC50,"[1]; Human immunodeficiency virus 1, PANEL 15, 65R + 184V",14.3 µM
same,IC50,"[1]; Human immunodeficiency virus 1, PANEL 17, L74V",8.94 µM
same,IC50,"[1]; Human immunodeficiency virus 1, PANEL 19, L74V + M184V",11.1 µM
same,IC50,"[1]; Human immunodeficiency virus 1, PANEL 26, 151M, no 184",63.2 µM
same,IC50,"[1]; Human immunodeficiency virus 1, PANEL 28, 151M + 184",58 µM
same,IC50,"[1]; Human immunodeficiency virus 1, PANEL 29, L74V − SDM",8.14 µM
same,IC50,"[1]; Human immunodeficiency virus 1, PANEL 30, M184V − SDM",6.76 µM
same,IC50,"[1]; Human immunodeficiency virus 1, PANEL 31, K65R − SDM",11 µM
same,IC50,"[1]; Human immunodeficiency virus 1, PANEL 33, T215Y",6.29 µM
same,IC50,"[1]; Human immunodeficiency virus 1, PANEL 34, T215Y + M184V",7.88 µM
same,IC50,"[1]; Human immunodeficiency virus 1, PANEL 35, M41L + T215Y",6.29 µM
same,IC50,"[1]; Human immunodeficiency virus 1, PANEL 37, M41L + T215Y + M184V",10.1 µM
same,IC50,"[1]; Human immunodeficiency virus 1, PANEL 38, M41L + L210W + T215Y",7.5 µM
same,IC50,"[1]; Human immunodeficiency virus 1, PANEL 39, M41L + L210W + T215Y",5.9 µM
same,IC50,"[1]; Human immunodeficiency virus 1, PANEL 40, M41L + L210W + T215Y + M184V",8.18 µM
same,IC50,"[1]; Human immunodeficiency virus 1, PANEL 41, M41L + L210W + T215Y + M184V",8.64 µM
same,IC50,"[1]; Human immunodeficiency virus 1, PANEL 42, D67N + K70R",6.57 µM
same,IC50,"[1]; Human immunodeficiency virus 1, PANEL 44, D67N + K70R + T215F + K219E + M184V",8.65 µM
same,IC50,"[1]; Human immunodeficiency virus 1, PANEL 45, L210W + T215Y",5.51 µM
same,IC50,"[1]; Human immunodeficiency virus 1, PANEL 46, D67N + K70E",7.73 µM
same,IC50,"[1]; Human immunodeficiency virus 1, PANEL 47, D67N + K70E + M184V",7.25 µM
same,IC50,"[1]; Human immunodeficiency virus 1, PANEL 48, K70E + M184V",9.91 µM
same,IC50 Fold Change,"[1]; PANEL 1, WT",1.01
same,IC50 Fold Change,"[1]; PANEL 2, WT",1.01
same,IC50 Fold Change,"[1]; PANEL 3, 6 TAMs, no 184",1.59
same,IC50 Fold Change,"[1]; PANEL 6, 6 TAMs + 184",2.06
same,IC50 Fold Change,"[1]; PANEL 7, 184V",1.38
same,IC50 Fold Change,"[1]; PANEL 9, 69ins, no 184",4.04
same,IC50 Fold Change,"[1]; PANEL 12, 69ins + 184",4.43
same,IC50 Fold Change,"[1]; PANEL 14, 65R, no 184",1.67
same,IC50 Fold Change,"[1]; PANEL 15, 65R + 184V",2.61
same,IC50 Fold Change,"[1]; PANEL 17, L74V",1.63
same,IC50 Fold Change,"[1]; PANEL 19, L74V + M184V",2.01
same,IC50 Fold Change,"[1]; PANEL 26, 151M, no 184",12.00
same,IC50 Fold Change,"[1]; PANEL 28, 151M + 184",11.00
same,IC50 Fold Change,"[1]; PANEL 29, L74V − SDM",1.48
same,IC50 Fold Change,"[1]; PANEL 30, M184V − SDM",1.23
same,IC50 Fold Change,"[1]; PANEL 31, K65R − SDM",2.00
same,IC50 Fold Change,"[1]; PANEL 33, T215Y",1.14
same,IC50 Fold Change,"[1]; PANEL 34, T215Y + M184V",1.43
same,IC50 Fold Change,"[1]; PANEL 35, M41L + T215Y",1.14
same,IC50 Fold Change,"[1]; PANEL 37, M41L + T215Y + M184V",1.84
same,IC50 Fold Change,"[1]; PANEL 38, M41L + L210W + T215Y",1.36
same,IC50 Fold Change,"[1]; PANEL 39, M41L + L210W + T215Y",1.07
same,IC50 Fold Change,"[1]; PANEL 40, M41L + L210W + T215Y + M184V",1.49
same,IC50 Fold Change,"[1]; PANEL 41, M41L + L210W + T215Y + M184V",1.57
same,IC50 Fold Change,"[1]; PANEL 42, D67N + K70R",1.19
same,IC50 Fold Change,"[1]; PANEL 44, D67N + K70R + T215F + K219E + M184V",1.57
same,IC50 Fold Change,"[1]; PANEL 45, L210W + T215Y",1.00
same,IC50 Fold Change,"[1]; PANEL 46, D67N + K70E",1.41
same,IC50 Fold Change,"[1]; PANEL 47, D67N + K70E + M184V",1.32
same,IC50 Fold Change,"[1]; PANEL 48, K70E + M184V",1.80
same,"Antagonism Volume, Result 1",[2],"−1.01 nM^2 %, μM^2 % or nMμM %"
same,"Synergy Volume, Result 1",[2],"3.38 nM^2 %, μM^2 % or nMμM %"
maraviroc [Maraviroc (MVC)],"Antagonism Volume, Result 1",[3]; [4],"−3.82 nM^2 %, μM^2 % or nMμM %"
same,"Antagonism Volume, Result 2",[3]; [4],"−3.12 nM^2 %, μM^2 % or nMμM %"
same,"Antagonism Volume, Result 3",[3]; [4],"0 nM^2 %, μM^2 % or nMμM %"
same,Mean Antagonism Volume (n = 3),[3]; [4],"−2.31 nM^2 %, μM^2 % or nMμM %"
same,Mean Synergy Volume (n = 3),[3]; [4],"85.3 nM^2 %, μM^2 % or nMμM %"
same,"Synergy Volume, Result 1",[3]; [4],"145 nM^2 %, μM^2 % or nMμM %"
same,"Synergy Volume, Result 2",[3]; [4],"14.1 nM^2 %, μM^2 % or nMμM %"
same,"Synergy Volume, Result 3",[3]; [4],"96.6 nM^2 %, μM^2 % or nMμM %"
same,Interpretation of Antiviral Results (MacSynergy),"[3]; two-drug combination (with CMX157; control d4T/RBV), MAGI-CCR5 cells",slightly synergistic
